The text below walks through data of ChEMBL document CHEMBL1201862, “PubChem BioAssay data set” (2004).

Among the test systems are TK-10; OVCAR-8; SW-620; NCI-H522; SR; SK-OV-3; RPMI-8226; OVCAR-4; HCT-116; NCI-H460; SF-295; NCI-H23; RXF 393; EKVX; T47D; MCF7; DU-145; Hs-578T; MDA-MB-231.
Holding throughout (assay): NCI-60 cell line screen, 48 h

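The compound was tested at five concentrations on cells cultured in 96-well plates, with a 48-hour exposure period. At the GI50, growth is halved.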 Calls of active or inactive are those of the source. No stated cut-off is given here; in the data, active = GI50 up to about 1.1 µM and inactive = higher.

Consider `[O-][N+]1=C(c2ccccc2)COc2ccccc21`, for which the GI50 in the assay on TK-10 is > 100 µM (inactive); in the assay with OVCAR-8 it was > 100 µM (inactive); in the assay with SW-620, > 100 µM (inactive); in the assay on NCI-H522 it was > 100 µM (inactive); in the assay with SR it was 47.5 µM (inactive); with SK-OV-3, > 100 µM (inactive). Moreover, the GI50 in the assay on RPMI-8226 was 67.5 µM (inactive); in the assay on OVCAR-4 it was > 100 µM (inactive); in the assay with HCT-116, > 100 µM (inactive); in the assay with NCI-H460 it was > 100 µM (inactive); in the assay with SF-295, > 100 µM (inactive); with NCI-H23, > 100 µM (inactive). Moreover, in the assay on RXF 393, the GI50 was > 100 µM (inactive).

On to `COc1cc2c(cc1O)CCN[C@@]21CS[C@H]2c3c(OC(C)=O)c(C)c4c(c3C(COC1=O)N1C2C2NC(Cc3cc(C)c(OC)c(O)c32)[C@@H]1C#N)OCO4` (some centres not stated), for which the GI50 with TK-10, with SW-620, with SR, in the assay on RPMI-8226, in the assay with OVCAR-4 and in the assay on HCT-116 was < 0.01 µM (active) each time. For the same compound, the GI50 in the assay with NCI-H460, with NCI-H23, with EKVX and with RXF 393 was < 0.01 µM (active) throughout.

As to `Cc1cc2cc3c(Cl)c(CCCl)c(C)nc3cc2c(Cl)c1CCCl`, the GI50 is 15.8 µM (inactive) with T47D; 23.6 µM (inactive) in the assay on TK-10; 26.9 µM (inactive) with MCF7; 24.1 µM (inactive) with OVCAR-8; 24.8 µM (inactive) with SW-620; 21.6 µM (inactive) in the assay with DU-145. For the same compound, the GI50 in the assay on NCI-H522 is 19.2 µM (inactive); with SR it was 11.3 µM (inactive); with RPMI-8226, 14 µM (inactive); with OVCAR-4, 18.1 µM (inactive); with HCT-116, 15.8 µM (inactive); in the assay with NCI-H460, 14.7 µM (inactive). Further, the GI50 in the assay on SF-295 was 17.2 µM (inactive); in the assay with NCI-H23, 21.8 µM (inactive); in the assay with Hs-578T, 9.84 µM (inactive); with EKVX, 2.87 µM (inactive); in the assay with RXF 393, 4.33 µM (inactive).

As for `COC(=O)/C([Se]c1c(C)cc(C)cc1C)=C(\[Se]c1c(C)cc(C)cc1C)C(=O)OC`, the GI50 with TK-10, with OVCAR-8, in the assay with SW-620, with NCI-H522, in the assay with SR and in the assay on SK-OV-3 was > 100 µM (inactive) in each case. Further, the GI50 in the assay on RPMI-8226, in the assay on OVCAR-4, in the assay with HCT-116, with NCI-H460, in the assay on SF-295 and with NCI-H23 was > 100 µM (inactive) each time. The GI50 in the assay with EKVX and in the assay with RXF 393 was > 100 µM (inactive) each time.

For `c1ccc(N2N=NC3C4CC(C5c6ccccc6C45)C32)cc1` (configuration not stated), the GI50 in the assay with TK-10 is > 100 µM (inactive); with OVCAR-8, 57.7 µM (inactive); in the assay with SW-620, 36.6 µM (inactive); in the assay on NCI-H522 it was 20.5 µM (inactive); in the assay on SR it was 20.2 µM (inactive); with SK-OV-3 it was 31.5 µM (inactive). In addition, the GI50 in the assay on RPMI-8226 is 18.4 µM (inactive); in the assay on OVCAR-4, 27.3 µM (inactive); with HCT-116, 24.7 µM (inactive); in the assay with NCI-H460 it was 40.6 µM (inactive); in the assay with SF-295 it was 38.4 µM (inactive); in the assay with NCI-H23, 24 µM (inactive). For the same compound, the GI50 in the assay with EKVX was 37.4 µM (inactive); in the assay with RXF 393 it was 15.4 µM (inactive).

In the case of `NCC1(N2CCOCC2)C2CCCC21CO` (configuration not stated), the GI50 with OVCAR-8, with SW-620, in the assay with NCI-H522, in the assay on SR, in the assay on SK-OV-3 and with RPMI-8226 was > 100 µM (inactive) each time. The GI50 with OVCAR-4, with HCT-116, in the assay with NCI-H460, in the assay on SF-295, in the assay on NCI-H23 and in the assay with RXF 393 was > 100 µM (inactive) each time.

For `CC(C)(C)OC(=O)NC1CCCC1=O` (configuration not stated), the GI50 in the assay with TK-10, in the assay with OVCAR-8, in the assay on SW-620, with NCI-H522, in the assay on SR and with SK-OV-3 was > 100 µM (inactive) each time. In addition, the GI50 in the assay on OVCAR-4, with HCT-116, in the assay on NCI-H460, with SF-295, in the assay with NCI-H23 and in the assay with EKVX was > 100 µM (inactive) throughout. In addition, the GI50 with RXF 393 was > 100 µM (inactive).

In the case of `CC(=O)Oc1cc2c(n(C)c1=O)CCC2`, the GI50 is > 100 µM (inactive) with TK-10; > 100 µM (inactive) in the assay with MCF7; 94.4 µM (inactive) with OVCAR-8; > 100 µM (inactive) in the assay on SW-620; > 100 µM (inactive) in the assay on DU-145; > 10 µM (inactive) with NCI-H522. For the same compound, the GI50 in the assay with SK-OV-3, with OVCAR-4, with HCT-116, with NCI-H460, in the assay with SF-295 and with NCI-H23 was > 100 µM (inactive) in each case. The GI50 in the assay with EKVX and with MDA-MB-231 was > 100 µM (inactive) in each case.

On to `C[N+](C)([O-])Cc1cc(-c2ccccc2)ccc1O`, for which the GI50 was > 100 µM (inactive) with T47D; > 100 µM (inactive) in the assay on TK-10; > 100 µM (inactive) in the assay on SW-620; > 100 µM (inactive) in the assay with DU-145; > 100 µM (inactive) in the assay on NCI-H522; 49.1 µM (inactive) in the assay with SR. The GI50 in the assay with OVCAR-4 is > 100 µM (inactive); in the assay with HCT-116, > 100 µM (inactive); in the assay on NCI-H460 it was 72.8 µM (inactive); in the assay on SF-295, > 100 µM (inactive); in the assay on NCI-H23, > 100 µM (inactive); with Hs-578T, 79.3 µM (inactive). In addition, the GI50 in the assay on EKVX, in the assay with RXF 393 and in the assay with MDA-MB-231 was > 100 µM (inactive) in each case.

In the case of `COC(=O)/C=C/C(=O)C1C(C(=O)OC)C2(C(=O)OC)CCC1(C(=O)OC)N2` (configuration not stated), the GI50 in the assay with TK-10, in the assay on OVCAR-8, in the assay with SR, in the assay with SK-OV-3, with RPMI-8226 and in the assay on OVCAR-4 was > 100 µM (inactive) throughout. The GI50 with HCT-116, with SF-295, in the assay with NCI-H23, in the assay with EKVX and in the assay on RXF 393 was > 100 µM (inactive) each time.

As to `C=CC[C@@]1(C#N)C[C@H](C[C@]2(C#N)C[C@H](CCl)OC(C)(C)O2)OC(C)(C)O1`, the GI50 in the assay on TK-10 was > 100 µM (inactive); in the assay on OVCAR-8 it was > 100 µM (inactive); with SW-620 it was > 100 µM (inactive); in the assay on NCI-H522 it was 46 µM (inactive); in the assay on SR, 60.7 µM (inactive); in the assay with SK-OV-3, > 100 µM (inactive). For the same compound, the GI50 with RPMI-8226 is 52.5 µM (inactive); with OVCAR-4 it was > 100 µM (inactive); in the assay with HCT-116, 55.2 µM (inactive); in the assay on NCI-H460, > 100 µM (inactive); in the assay with SF-295, > 100 µM (inactive); in the assay on NCI-H23 it was > 100 µM (inactive). Also, the GI50 with EKVX and with RXF 393 was > 100 µM (inactive) in each case.

On to `CC(C)N(C(=O)C12C3C4C5C3C1(C(=O)N(C(C)C)C(C)C)C5(C#N)C42)C(C)C` (configuration not stated), for which the GI50 was > 100 µM (inactive) with TK-10; > 100 µM (inactive) in the assay with OVCAR-8; 17.9 µM (inactive) in the assay on SW-620; > 100 µM (inactive) in the assay with NCI-H522; 17.9 µM (inactive) in the assay with SR; > 100 µM (inactive) in the assay on SK-OV-3. In addition, the GI50 with RPMI-8226 was 26.7 µM (inactive); in the assay with OVCAR-4 it was > 100 µM (inactive); in the assay on HCT-116 it was 38.4 µM (inactive); with NCI-H460, 61 µM (inactive); in the assay with SF-295 it was > 100 µM (inactive); in the assay with NCI-H23, > 100 µM (inactive). The GI50 with EKVX is > 100 µM (inactive).

Take `COC(=O)C(=O)C(C(=O)C(=O)Nc1ccccc1C(N)=O)c1nc2ccc(C(=O)c3ccccc3)cc2nc1O` (configuration not stated): the GI50 with TK-10 is > 100 µM (inactive); in the assay on OVCAR-8, > 100 µM (inactive); in the assay with SW-620, > 100 µM (inactive); with NCI-H522 it was 23.5 µM (inactive); in the assay with SR, 68.1 µM (inactive); in the assay on RPMI-8226, > 100 µM (inactive). Moreover, the GI50 in the assay with OVCAR-4, in the assay on HCT-116, in the assay on NCI-H460, in the assay with SF-295, in the assay with NCI-H23 and in the assay with EKVX was > 100 µM (inactive) each time. In the assay on RXF 393, the GI50 is 80.2 µM (inactive).

For `COC(=O)C(C(=O)C(=O)Nc1ccc(C)cc1C)c1csc(-n2nc(-c3ccccc3)cc2-c2ccccc2)n1` (configuration not stated), the GI50 in the assay with TK-10, with OVCAR-8, in the assay with SW-620, in the assay on NCI-H522, in the assay with SR and with SK-OV-3 was > 100 µM (inactive) throughout. Also, the GI50 with OVCAR-4 is 82.4 µM (inactive); in the assay with HCT-116, 58.1 µM (inactive); in the assay on NCI-H460 it was > 100 µM (inactive); in the assay with NCI-H23, > 100 µM (inactive); in the assay on EKVX it was 73.3 µM (inactive); in the assay on RXF 393, 92 µM (inactive).

Regarding `O=C1C(c2ccc([N+](=O)[O-])cc2)=[N+]([O-])c2ccc([N+](=O)[O-])cc21`, the GI50 in the assay with TK-10 is 77.8 µM (inactive); with OVCAR-8, 29.3 µM (inactive); with SW-620 it was 39.4 µM (inactive); with SR, 35.1 µM (inactive); in the assay with SK-OV-3 it was 36.4 µM (inactive); in the assay with RPMI-8226, 15.5 µM (inactive). Besides, the GI50 with OVCAR-4 is 28.1 µM (inactive); in the assay with NCI-H460, > 100 µM (inactive); in the assay with SF-295, 56.1 µM (inactive); in the assay with NCI-H23, 33.8 µM (inactive); in the assay with EKVX it was > 100 µM (inactive); with RXF 393, 56.4 µM (inactive).
